# Source: patent publication US10111847B2, “Compounds and methods for modulating vascular injury” (The Regents of the University of California, priority 2012, dated 2018)
# Legend:
# VCAM-1 = VCAM-1 expression in TNFα treated VSMC, western blot; assay type: cell-based, human; settings: 10 and 100 nM; TNFα 10 ng/ml 4 hr; P=0.20 compared to TNFα
# Description: Mar-1. VSMCs and ECs were lysed in buffer (20 mM Tris-Hcl, 137 mM NaCl, 10% Glycerol, 1% NP-40) with protease and phosphatase inhibitors (Halt inhibitor capsules, Pierce, Inc) by sonication on ice. The lysates were instantly snap frozen in liquid nitrogen and thawed back later for western blotting. After centrifugation (15,000 g for 20 minutes), the whole cell extract (supernatant) was collected and was heated at 100° C. in Laemlli buffer for 6 minutes. Lysates were run on Mini-Protean TGX gels
# (Biorad) and transferred on PVDF membranes which were probed with appropriate primary and secondary antibodies and visualized for quantitation using q-dot nanocrystals (Life Technologies, Inc).
# FIGS. 15A-15D. Representative images of Calcein-AM labeled U937 monocytes adhered to human sv-VSMCs pretreated with vehicle (A, B) or 7S-Maresin-1 (C) or 7S-Maresin-1 and pertussis toxin (D) for 30 min, followed by TNFα at 10 ng/ml for 4 hr (B, C, D). (E) Quantitative analysis of U937 adhesion assay in human sv-VSMCs and (F) human sv-ECs (1 ng/ml TNFα used for EC cells). […] Bar graph represents net quantitative densitometry analysis. […] Expression of MCP-1 was measured by qRT-PCR, and normalized to unstimulated cells (n=3, results are mean±SEM, P<0.05 for Mar-1 (10 and 100 nM) vs TNF alone, unpaired t-test).
# p65 subunit = assay: Nuclear translocation of p65 subunit in sv-VSMCs (immunofluorescence); assay type: cell-based, human; settings: 100 nm, 30 min; TNFα 10 ng/ml 2 hrs
# Description: Immunofluorescence for p65 (RelA): 15000 VSMCs or 30000 ECs were seeded on a 8-well chamber slide. Cells received 30 min of Maresin-1 pretreatment, followed by TNF-α for 2 hr. Cells were fixed in 2% paraformaldehyde, followed by permeabilization with ice-cold acetone (10 min) and 1% Triton X-100 (20 min). Cells were incubated overnight in a humidified chamber with anti-p65 antibody (Santa Cruz Biotechnology Inc.) followed by Alexa-fluor 488 tagged secondary antibody (Life Technologies) and were visualized under a fluorescent microscope.
# FIGS. 16A-16D. VSMCs were grown in chamber slides and treated with vehicle or 100 nm of 7S or 7R-Maresin-1 with/without 10 ng/ml pertussis toxin for 30 min, followed by TNFα (10 ng/ml) for 2 hrs. Cells were fixed and subsequently stained with anti-p65 (Santa Cruz Biotechnology) and secondary antibodies (Alexa-488). (A-D) Representative images of Ctrl (A), TNFα (B), 7R-Maresin-1+TNFα (C) and 7R-Maresin-1+pertussis toxin (10 ng/ml)+TNFα. (E) Mean fluorescence of nucleus and cytoplasm were quantified from all groups and the net result of the ratio of nucleus over cytoplasmic mean fluorescence is depicted in the bar graph, as a measure of relative p65 nuclear translocation. (N>=3). […]
compound,measurement,setting,value
"CC/C=C\C/C=C\C[C@H](O)\C=C/C=C/C=C/[C@@H](O)C/C=C\CCC(=O)O [7S-Maresin-1, 7S,14R-dihydroxydocosa-4Z,8E,10Z,12Z,16Z,19Z-hexaenoic acid]",VCAM-1 expression by Western blot,VCAM-1,inhibition of VCAM-1 expression
same,nuclear translocation of p65 subunit in human sv-VSMCs,p65 subunit,Inhibit
